This experiment concerns HCT116. As to conditions: 72 h. An outline of the steps: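 HCT116 cells were seeded at 250 per well in 1536-well plates and left 5 h to attach. CellTiter-Glo luminescence was scaled to vehicle (0%) and positive control (-100%), then pattern-corrected. IC50 and maximal efficacy came from four-parameter Hill fits.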

Where a name gives a salt, the structure may show the parent alone.

As for `CN(C)CC(=O)O` [N,N-DIMETHYLGLYCINE HYDROCHLORIDE], the IC50 cell viability runs as follows: (ICRF193 0 nM) greater than 45.8 µM; (ICRF193 200 nM) greater than 45.8 µM.

Turning to `CC(=O)NCCCS(=O)(=O)O` [Acamprosate Calcium], the IC50 cell viability is greater than 45.8 µM (ICRF193 0 nM) and greater than 45.8 µM (ICRF193 200 nM).

As for `CCN1CCN(C(=O)N[C@@H](C(=O)N[C@]2(OC)C(=O)N3C(C(=O)O)=C(CSc4nnnn4C)CS[C@@H]32)[C@H](C)O)C(=O)C1=O` [Cefbuperazone], the IC50 cell viability (ICRF193 0 nM) was greater than 45.8 µM and the IC50 cell viability (ICRF193 200 nM) is greater than 45.8 µM.

With `CN1C(=O)CC(C)(c2ccccc2)C1=O` (stereo unspecified) [Methsuximide], the IC50 cell viability is greater than 45.8 µM (ICRF193 0 nM) and greater than 45.8 µM (ICRF193 200 nM).

On to `CN(C)CCC=C1c2ccccc2COc2ccccc21` [Doxepin hydrochloride], for which the IC50 cell viability runs as follows: (ICRF193 0 nM) greater than 45.8 µM; (ICRF193 200 nM) greater than 45.8 µM.

`Cc1c[nH]c2ccccc12` [3-Methylindole]: the IC50 cell viability was greater than 45.8 µM (ICRF193 0 nM) and greater than 45.8 µM (ICRF193 200 nM).

As to `C[C@H]1O[C@H](O[C@H]2[C@H](O)[C@@H](O)[C@@H](O[C@H]3[C@H](O)[C@@H](O)C(O)O[C@@H]3CO)O[C@@H]2CO)[C@H](O)[C@@H](O)[C@@H]1N[C@H]1C=C(CO)[C@@H](O)[C@H](O)[C@H]1O` (stereo partly specified) [Acarbose], the IC50 cell viability was greater than 45.8 µM (ICRF193 0 nM) and greater than 45.8 µM (ICRF193 200 nM).

For the compound `NS(=O)(=O)c1cc2c(cc1Cl)NCNS2(=O)=O` [Hydrochlorothiazide], the IC50 cell viability is greater than 45.8 µM (ICRF193 0 nM) and greater than 45.8 µM (ICRF193 200 nM).

Turning to `C[C@H]1C[C@@H]2[C@H]([C@@H](O)C[C@@]3(C)[C@H]2CC[C@]3(O)C(=O)CO)[C@@]2(C)C=CC(=O)C=C12` [Methylprednisolone], the IC50 cell viability is greater than 45.8 µM (ICRF193 0 nM) and greater than 45.8 µM (ICRF193 200 nM).

`CC(C)CCC(=O)O[C@H]1CC[C@H]2[C@@H]3CCC4=CC(=O)CC[C@]4(C)[C@H]3CC[C@]12C` [Testosterone isocaproate]: the IC50 cell viability (ICRF193 0 nM) was greater than 45.8 µM and the IC50 cell viability (ICRF193 200 nM) is greater than 45.8 µM.

On to `O=C([O-])c1ccccc1-c1c2cc(Br)c(=O)cc-2oc2[c]([Hg+])c([O-])c(Br)cc12.[Na+].[Na+].[OH-]` [Merbromin], for which the IC50 cell viability was greater than 45.8 µM (ICRF193 0 nM) and greater than 45.8 µM (ICRF193 200 nM).

As for `COc1ccccc1OCC(O)CO` (stereo unspecified) [Guaifenesin], the IC50 cell viability (ICRF193 0 nM) was greater than 45.8 µM and the IC50 cell viability (ICRF193 200 nM) was greater than 45.8 µM.

Take `CC(=O)OCC(=O)[C@@]12OC(C)(C)O[C@@H]1C[C@H]1[C@@H]3C[C@H](F)C4=CC(=O)C=C[C@]4(C)[C@@]3(F)[C@@H](O)C[C@@]12C` [Fluocinonide]: the IC50 cell viability by setting is: (ICRF193 0 nM) greater than 45.8 µM; (ICRF193 200 nM) greater than 45.8 µM.

As for `CC(C(=O)O)c1ccc(CC2CCCC2=O)cc1` (stereo unspecified) [Loxoprofen], the IC50 cell viability (ICRF193 0 nM) is greater than 45.8 µM and the IC50 cell viability (ICRF193 200 nM) was greater than 45.8 µM.

Consider `CCOc1c(N2CCOCC2)cnn(C)c1=O` [Emorfazone], for which the IC50 cell viability is greater than 45.8 µM (ICRF193 0 nM) and greater than 45.8 µM (ICRF193 200 nM).

Turning to `O=c1[nH]c(=O)n(C2CCCO2)cc1F` (stereo unspecified) [Tegafur], the IC50 cell viability is, setting by setting: (ICRF193 0 nM) greater than 45.8 µM; (ICRF193 200 nM) greater than 45.8 µM.

Turning to `NNCCc1ccccc1` [Phenelzine], the IC50 cell viability is, setting by setting: (ICRF193 0 nM) greater than 45.8 µM; (ICRF193 200 nM) greater than 45.8 µM.

For `O=C(O)c1cccnc1` [Niacin], the IC50 cell viability was greater than 45.8 µM (ICRF193 0 nM) and greater than 45.8 µM (ICRF193 200 nM).

As for `CCC1Nc2cc(Cl)c(S(N)(=O)=O)cc2S(=O)(=O)N1` (stereo unspecified) [Ethiazide], the IC50 cell viability (ICRF193 0 nM) is greater than 45.8 µM and the IC50 cell viability (ICRF193 200 nM) is greater than 45.8 µM.

For the compound `FC(F)(F)C(Cl)Br` (stereo unspecified) [HALOTHANE], the IC50 cell viability by setting is: (ICRF193 0 nM) greater than 45.8 µM; (ICRF193 200 nM) greater than 45.8 µM.

With `OC[C@H]1O[C@@](CO)(O[C@H]2O[C@H](CO)[C@@H](O)[C@H](O)[C@H]2O)[C@@H](O)[C@@H]1O` [Sucrose], the IC50 cell viability reads like this: (ICRF193 0 nM) greater than 45.8 µM; (ICRF193 200 nM) greater than 45.8 µM.

As to `O=C(O[C@H]1CN2CCC1CC2)N1CCc2ccccc2[C@@H]1c1ccccc1` [Solifenacin (hydrochloride)], the IC50 cell viability is, setting by setting: (ICRF193 0 nM) greater than 45.8 µM; (ICRF193 200 nM) greater than 45.8 µM.

For the compound `CCCCCCCCCCCCCCCC(=O)OC1CCCn2c1nc(C)c(CCN1CCC(c3noc4cc(F)ccc34)CC1)c2=O` (stereo unspecified) [Paliperidone Palmitate], the IC50 cell viability is greater than 45.8 µM (ICRF193 0 nM) and greater than 45.8 µM (ICRF193 200 nM).

On to `C[C@H]1COc2c(N3CCN(C)CC3)c(F)cc3c(=O)c(C(=O)O)cn1c23` [Levofloxacin], for which the IC50 cell viability runs as follows: (ICRF193 0 nM) greater than 45.8 µM; (ICRF193 200 nM) greater than 45.8 µM.

As to `COc1ccc([C@@H]2Sc3ccccc3N(CCN(C)C)C(=O)[C@@H]2OC(C)=O)cc1` [Diltiazem], the IC50 cell viability runs as follows: (ICRF193 0 nM) greater than 45.8 µM; (ICRF193 200 nM) greater than 45.8 µM.

As to `CCCCCCCCCCCCCCCCCC(=O)O` [Octadecanoic acid], the IC50 cell viability is, setting by setting: (ICRF193 0 nM) greater than 45.8 µM; (ICRF193 200 nM) greater than 45.8 µM.

Take `CCOC(=O)[C@@H](N)CS` [L-Cysteine ethyl ester hydrochloride]: the IC50 cell viability (ICRF193 0 nM) was greater than 45.8 µM and the IC50 cell viability (ICRF193 200 nM) was greater than 45.8 µM.

As for `CC(C)NC(C)Cc1ccc(I)cc1` (stereo unspecified) [Iofetamine hydrochloride], the IC50 cell viability is, setting by setting: (ICRF193 0 nM) greater than 45.8 µM; (ICRF193 200 nM) greater than 45.8 µM.

(Values after the supplement of paper PMC12137928.)
